{"source": "patent US11111463B2", "about": "“Solid cleansing compositions with taurine and methods thereof” (Colgate-Palmolive Company, priority 2016, dated 2021)", "assay": "MTT colorimetric assay, dose response, cell viability", "assay_type": "cell-based", "details": "human, HaCat cells, untreated = 100", "experimental": "An MTT colorimetric assay (HaCat Cells) dose response experiment was conducted to analyze cell viability, or the percentage of cells present after treatment. Particularly, the MTT colorimetric assay was conducted to determine cell viability of the anhydrous 2:1 urea to taurine ionic liquid (2) of Example 1 in comparison to taurine. The HaCat Cells were 60-70% confluent, and a PBS buffer was used for serial volumetric dilutions. The results of the MTT colorimetric assay are summarized in Table 6, and highlight the effectiveness of the ionic liquid form. Cell viability greater than 100% indicates cell growth or proliferation, and cell viability less than 100% indicates cell death.", "data": [{"compound": "NCCS(=O)(=O)O", "note": "[Taurine, 2-aminoethanesulfonic acid]", "values": [{"measurement": "viability at 1e-05 w/w %", "setting": "concentration of taurine 0.00001 w/w %", "value": 137, "unit": "%"}, {"measurement": "viability at 0.0001 w/w %", "setting": "concentration of taurine 0.00010 w/w %", "value": 120, "unit": "%"}, {"measurement": "viability at 0.001 w/w %", "setting": "concentration of taurine 0.00100 w/w %", "value": 141, "unit": "%"}, {"measurement": "viability at 0.01 w/w %", "setting": "concentration of taurine 0.01000 w/w %", "value": 147, "unit": "%"}, {"measurement": "viability at 0.1 w/w %", "setting": "concentration of taurine 0.10000 w/w %", "value": 99, "unit": "%"}]}]}
